The target of test [1] is T1, Full-length wild type HIV-1 integrase (SF1) (Human immunodeficiency virus type 1 group M subtype B, UniProt P04585).
T1 construct: made in house; host or cells: E. coli BL21 (DE3)
In words: Integrase strand-transfer scintillation proximity assay. In kind it is biochemical. The settings on record: 50 min at 37° C., 246 nM integrase, 50 nM host DNA. The source says: Integrase Strand-Transfer Scintillation Proximity Assay Oligonucleotides
Oligonucleotide #1-5′-(biotin)[…]-3′ (SEQ ID NO: 1) and oligonucleotide #2-5′-[…]-3′ (SEQ ID NO: 2), were synthesized by TriLink BioTechnologies, Inc. (San Diego, Calif.). The annealed product represents preprocessed viral ds-DNA derived from the LTR U5 sequence of the viral genome. A ds-DNA control to test for non-specific interactions was made using a 3′ di-deoxy derivative of oligonucleotide #1 annealed to oligonucleotide #2. The CA overhang at the 5′ end of the non-biotinylated strand of the ds-DNA was created artificially by using a complimentary DNA oligonucleotide shortened by 2 base pairs. This configuration eliminates the requisite 3′ processing step of the integrase enzyme prior to the strand-transfer mechanism. Host ds-DNA was prepared as an unlabeled and [^3H]-thymidine labeled product from annealed oligonucleotide #3-5-[…]-3′ (SEQ ID NO: 3), and oligonucleotide #4-5′-[…]-3′ (SEQ ID NO: 4), both synthesized by TriLink BioTechnologies, Inc. (San Diego, Calif.). The annealed product had overhanging 3′ ends of poly(dA). Host DNA was custom radiolabeled by PerkinElmer Life Sciences Inc. (Boston, Mass.) using an enzymatic method with a 12/1 ratio of [methyl-3H]dTTP/cold ds-DNA to yield 5′-blunt end ds-DNA with a specific activity of >900 Ci/mmol. The radiolabeled product was purified using a NENSORB cartridge and stored in stabilized aqueous solution (PerkinElmer). The final radiolabeled product had six [^3H]-thymidine nucleotides at both 5′ ends of the host ds-DNA. Reagents: Streptavidin-coated polyvinyltoluene (PVT) SPA beads were purchased from Amersham Biosciences (Piscataway, N.J.). Cesium chloride was purchased from Shelton Scientific, Inc. (Shelton, Conn.). White, polystyrene, flat-bottom, non-binding surface, 96-well plates were purchased from Corning. All other buffer components were purchased from Sigma (St. Louis, Mo.) unless otherwise indicated.
Enzyme Construction: Full-length wild type HIV-1 integrase (SF1) sequence (amino acids 1-288) was constructed in a pET24a vector (Novagen, Madison, Wis.). The construct was confirmed through DNA sequencing. Enzyme Purification: Full length wild-type HIV Integrase was expressed in E. coli BL21 (DE3) cells and induced with 1 mM isopropyl-1 thio-β-D-galactopyranoside (IPTG) when cells reached an optical density between 0.8-1.0 at 600 nm. Cells were lysed by microfluidation in 50 mM HEPES pH 7.0, 75 mM NaCl, 5 mM DTT, 1 mM 4-(2-Aminoethyl)benzenesulfonylfluoride HCl (AEBSF). Lysate was then centrifuged 20 minutes at 11 k rpm in GSA rotor in Sorvall RC-5B at 4° C. Supernant was discarded and pellet resuspended in 50 mM HEPES pH 7.0, 750 mM NaCl, 5 mM DTT, 1 mM AEBSF and homogenized in a 40 mL Dounce homogenizer for 20 minutes on ice. Homogenate was then centrifuged 20 minutes at 11 k rpm in SS34 rotor in Sorvall RC-5B at 4° C. Supernant was discarded and pellet resuspended in 50 mM HEPES pH 7.0, 750 mM NaCl, 25 mM CHAPS, 5 mM DTT, 1 mM AEBSF. Preparation was then centrifuged 20 minutes at 11 k rpm in SS34 rotor in Sorvall RC-5B at 4° C. Supernant was then diluted 1:1 with 50 mM HEPES pH 7.0, 25 mM CHAPS, 1 mM DTT, 1 mM AEBSF and loaded onto a Q-Sepharose column pre-equilibrated with 50 mM HEPES, pH 7.0, 375 mM NaCl, 25 mM CHAPS, 1 mM DTT, 1 mM AEBSF. The flow through peak was collected and NaCl diluted to 0.1 M with 50 mM HEPES pH 7.0, 25 mM CHAPS, 1 mM DTT, 0.5 mM AEBSF and loaded onto a SP-Sepharose column pre-equilibrated with 50 mM HEPES pH 7.0, 100 mM NaCl, 25 mM CHAPS, 1 mM DTT, 0.5 mM AEBSF. After washing the column with the equilibration buffer, a 100 to 400 mM NaCl gradient was run. The eluted integrase was concentrated and run on a S-300 gel diffusion column using 50 mM HEPES pH 7.0, 500 mM NaCl, 25 mM CHAPS, 1 mM DTT, 0.5 mM AEBSF. The peak from this column was concentrated to 0.76 mg/mL and stored at −70° C. and later used for strand transfer assays. […]

In test [2] the test system is RF strain of HIV-1 in CEM-SS cells. Briefly: HIV-1 cell protection assay (XTT dye reduction). In kind it is cell-based. As for the experimental part: HIV-1 Cell Protection Assay
The antiviral activities of potential modulator compounds (test compounds) were determined in HIV-1 cell protection assays using the RF strain of HIV-1, CEM-SS cells, and the XTT dye reduction method (Weislow, O. S. et al., J. Natl. Cancer Inst. 81: 577-586 (1989)). Subject cells were infected with HIV-1 RF virus at an moi of 0.025 to 0.819 or mock infected with medium only and added at 2×10^4 cells per well into 96 well plates containing half-log dilutions of test compounds. Six days later, 50 μl of XTT solution (1 mg/ml XTT tetrazolium and […] phenazine methosulfate) were added to the wells and the plates were reincubated for four hours. Viability, as determined by the amount of XTT formazan produced, was quantified spectrophotometrically by absorbance at 450 nm. Data from CPE assays were expressed as the percent of formazan produced in compound-treated cells compared to formazan produced in wells of uninfected, compound-free cells. […] The therapeutic index was calculated by dividing the cytotoxicity (CC50) by the antiviral activity (EC50).
Background: Formazan colour is commonly taken as a measure of viable cells.

Where [3] appears, read: strand transfer, read-out: IC50.
[4] abbreviates: Human immunodeficiency virus 1, CEM-SS, 144 h, HIV-1 RF, CEM-SS cells, XTT dye reduction, six days, read-out: EC50.

SMILES strings stand for the structures. Read-outs that look alike come from different tables or passages of the source.

As to `CN(CCS(C)(=O)=O)Cc1cn(Cc2ccc(F)cc2F)c2cnc(C(=O)NO)cc12` [Example 95, 1-(2,4-difluorobenzyl)-N-hydroxy-3-({methyl[2-(methylsulfonyl)ethyl]amino}methyl)-1H-pyrrolo[2,3-c]pyridine-5-carboxamide], in test [1] (setting [3]), the IC50 (usually the concentration needed to halve the response being measured) was 127 nM. For the same molecule, the EC50 (commonly the concentration that produces a half-maximal response) in test [2] (setting [4]) is 17 nM.

As to `CN1CCN(Cc2cn(Cc3ccc(F)cc3F)c3cnc(C(=O)N(C)O)cc23)CC1` [Example 13], the IC50 in test [1] (IC50, strand transfer) came out at 695 nM. Further, the EC50 in test [2] (setting [4]) is 220 nM.

Consider `CC1C(=O)NCCN1Cc1cn(Cc2ccc(F)cc2)c2cnc(C(=O)N(C)O)cc12` (stereo not shown) [Example 33, 1-(4-Fluorobenzyl)-N-hydroxy-N-methyl-3-[(2-methyl-3-oxopiperazin-1-yl)methyl]-1H-pyrrolo[2,3-c]pyridine-5-carboxamide], for which the IC50 in test [1] (setting [3]) was determined as 463 nM. In test [2] (setting [4]), the EC50 was 210 nM.

With `CN(CCc1ccccn1)Cc1cn(Cc2ccc(F)cc2F)c2cnc(C(=O)NO)cc12` [Example 63, 1-(2,4-Difluorobenzyl)-N-hydroxy-3-{[methyl(2-pyridin-2-ylethyl)amino]methyl}-1H-pyrrolo[2,3-c]pyridine-5-carboxamide], in test [1] (setting [3]), the IC50 was 424 nM. In test [2] (setting [4]), the EC50 came to 16 nM.

For the molecule `O=C(NO)c1cc2c(CNC3CCOCC3)cn(Cc3ccc(F)cc3F)c2cn1` [Example 91, 1-(2,4-Difluorobenzyl)-N-hydroxy-3-[(tetrahydro-2H-pyran-4-ylamino)methyl]-1H-pyrrolo[2,3-c]pyridine-5-carboxamide], in test [1] (setting [3]), the IC50 stood at 519 nM. Further, the EC50 in test [2] (setting [4]) was 28 nM.

In the case of `CC(C)C(CO)NCc1cn(Cc2ccc(F)cc2F)c2cnc(C(=O)NO)cc12` (stereo not shown) [Example 78, 1-(2,4-Difluorobenzyl)-N-hydroxy-3-({[1-(hydroxymethyl)-2-methylpropyl]amino}methyl)-1H-pyrrolo[2,3-c]pyridine-5-carboxamide], in test [1] (setting [3]), the IC50 was 571 nM. In test [2] (setting [4]), the EC50 worked out at 83 nM.

Regarding `O=C(NO)c1cc2c(CNCCO)cn(Cc3ccc(F)cc3F)c2cn1` [Example 3], the IC50 in test [1] (setting [3]) was 195 nM. The EC50 in test [2] (HIV-1 RF, CEM-SS cells, XTT dye reduction, six days, read-out: EC50) stood at 160 nM.

As to `O=C(NO)c1cc2c(COC[C@H](O)CO)cn(Cc3ccc(F)cc3F)c2cn1` [Example 107, 1-(2,4-Difluorobenzyl)-3-({[(2S)-2,3-dihydroxypropyl]oxy}methyl)-hydroxy-1H-pyrrolo[2,3-c]pyridine-5-carboxamide], the midpoint of inhibition in test [1] (IC50, strand transfer), the IC50, lay at 3.4 nM. In addition, in test [2] (setting [4]), the EC50 was found to be 32.2 nM.

Regarding `O=C(NO)c1cc2ncn(Cc3cccc(F)c3F)c2cn1` [Example 24, 3-(2,3-Difluoro-benzyl)-N-hydroxy-3H-imidazo[4,5-c]pyridine-6-carboxamide], the IC50 in test [1] (setting [3]) is 1040 nM. In test [2] (setting [4]), the EC50 stood at 110 nM.

Turning to `CCOCCOCc1cn(Cc2ccc(F)cc2)c2cnc(C(=O)N(C)O)cc12` [Example 120, 3-[(2-ethoxyethoxy)methyl]-1-(4-fluorobenzyl)-N-hydroxy-N-methyl-1H-pyrrolo[2,3-c]pyridine-5-carboxamide], the IC50 in test [1] (setting [3]) turned out to be 57 nM. Moreover, the EC50 in test [2] (setting [4]) was determined as 307 nM.

Turning to `C=Cc1c(C(=O)NO)ncc2c1ccn2Cc1ccc(F)cc1` [Example 39, 1-(4-Fluorobenzyl)-N-hydroxy-4-vinyl-1H-pyrrolo[2,3-c]pyridine-5-carboxamide], the EC50 in test [2] (setting [4]) was determined as 3.05 nM.

For `CC(NCc1cn(Cc2ccc(F)cc2F)c2cnc(C(=O)NO)cc12)c1ccccc1` (stereo not shown) [Example 71, 1-(2,4-Difluorobenzyl)-N-hydroxy-3-{[(1-phenylethyl)amino]methyl}-1H-pyrrolo[2,3-c]pyridine-5-carboxamide], the IC50 in test [1] (setting [3]) was found to be 409 nM. The EC50 in test [2] (setting [4]) is 44 nM.

In the case of `CC1(C)OC[C@H](COCc2cn(Cc3ccc(F)cc3)c3cnc(C(=O)NO)cc23)O1` [Example 111, 3-({[(4S)-2,2-dimethyl-1,3-dioxolan-4-yl]methoxy}methyl)-1-(4-fluorobenzyl)-N-hydroxy-1H-pyrrolo[2,3-c]pyridine-5-carboxamide], in test [1] (setting [3]), the IC50 was 20 nM. The EC50 in test [2] (setting [4]) was determined as 77.4 nM.

`O=C(NO)c1cc2ccn(Cc3ccc(F)cc3F)c2cn1` [Example 1, 1-(2,4-Difluorobenzyl)-N-hydroxy-1H-pyrrolo[2,3-c]pyridine-5-carboxamide]: the IC50 in test [1] (setting [3]) amounted to 84 nM. The EC50 in test [2] (setting [4]) was 7.95 nM.

On to `O=C(NO)c1cc2c(CNCCc3ccccn3)cn(Cc3ccc(F)cc3F)c2cn1` [Example 56], for which the IC50 in test [1] (setting [3]) stood at 278 nM. The EC50 in test [2] (setting [4]) came out at 11 nM.

`O=C(NO)c1cc2cnn(Cc3ccc(F)cc3)c2cn1` [Example 35, 1-(4-Fluorobenzyl)-N-hydroxy-1H-pyrazolo[3,4-c]pyridine-5-carboxamide]: the IC50 in test [1] (setting [3]) amounted to 446 nM.

On to `CCONC(=O)c1cc2c(CN(C)CCCN(C)C)cn(Cc3ccc(F)cc3)c2cn1` [Example 116, 3-{[[3-(Dimethylamino)propyl](methyl)amino]methyl}-N-ethoxy-1-(4-fluorobenzyl)-1H-pyrrolo[2,3-c]pyridine-5-carboxamide], for which the EC50 in test [2] (setting [4]) was found to be 3900 nM.

With `CCCN(CCO)Cc1cn(Cc2ccc(F)cc2)c2cnc(C(=O)NOCC)cc12` [Example 115, N-ethoxy-1-(4-fluorobenzyl)-3-{[(2-hydroxyethyl)(propyl)amino]methyl}-1H-pyrrolo[2,3-c]pyridine-5-carboxamide], in test [2] (setting [4]), the EC50 is 3700 nM.

In turn, `COCc1cn(Cc2ccc(F)cc2)c2cnc(C(=O)N(C)O)cc12` [Example 122, 1-(4-Fluorobenzyl)-AN-hydroxy-3-(methoxymethyl)-N-methyl-1H-pyrrolo[2,3-c]pyridine-5-carboxamide] gave an EC50 in test [2] (Human immunodeficiency virus 1, CEM-SS, 144 h) of 242 nM.

Regarding `CCOCCOCc1cn(Cc2ccc(F)cc2)c2cnc(C(=O)NOC)cc12` [Example 121, 3-[(2-Ethoxyethoxy)methyl]-1-(4-fluorobenzyl)-N-methoxy-1H-pyrrolo[2,3-c]pyridine-5-carboxamide], the EC50 in test [2] (setting [4]) turned out to be 512 nM.

Values taken from US7468375B2 (Pfizer Inc., priority 2004, dated 2008).
